Measured values reported in the supplement of paper PMC8253809.

Test system: HGGX42 (H3.3 G34R paediatric high-grade glioma line)
Test: growth inhibition relative to DMSO (0) and positive control (1) (fraction); higher = more growth inhibition
Outline: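 Single-agent values are the one-drug arms of the two-drug matrix plates, on which pHGG lines and astrocytes grew on Geltrex-coated 384-well plates for 7 days of treatment in two plate orientations. CellTiter-Glo signal was set to solvent wells as 0 and positive-control wells as 1, with no log2 transformation. The resulting fractional activity was fitted by response-surface synergy modelling.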

O=C(NOC[C@H](O)CO)c1ccc(F)c(F)c1Nc1ccc(I)cc1F + CC1(C)OCCn2c1nc1c(N3CCOCC3)nc(-c3cnc(N)nc3)nc12 [GDC0084]
growth inhibition
Details | compound 1 concentration 0.009766 µM | compound 1 concentration 0.01953 µM | compound 1 concentration 0.03906 µM | compound 1 concentration 0.07812 µM | compound 1 concentration 0.15625 µM | compound 1 concentration 0.3125 µM | compound 1 concentration 0.625 µM | compound 1 concentration 1.25 µM | compound 1 concentration 5 µM | compound 1 concentration 20 µM
compound 2 concentration 0.03906 µM | 0.121 | 0.215 | -0.0211 | 0.146 | -0.0192 | 0.0136 | 0.0247 | 0.074 | 0.354 | 0.554
compound 2 concentration 0.07812 µM | 0.188 | 0.255 | 0.106 | 0.265 | 0.148 | 0.0907 | 0.211 | 0.153 | 0.575 | 0.609
compound 2 concentration 0.15625 µM | 0.307 | 0.29 | 0.478 | 0.322 | 0.224 | 0.377 | 0.32 | 0.341 | 0.477 | 0.686
compound 2 concentration 0.3125 µM | 0.494 | 0.466 | 0.484 | 0.515 | 0.431 | 0.424 | 0.294 | 0.326 | 0.507 | 0.716
compound 2 concentration 0.625 µM | 0.673 | 0.632 | 0.625 | 0.647 | 0.57 | 0.606 | 0.602 | 0.528 | 0.674 | 0.8
compound 2 concentration 1.25 µM | 0.782 | 0.743 | 0.746 | 0.753 | 0.748 | 0.706 | 0.723 | 0.703 | 0.803 | 0.895
compound 2 concentration 5 µM | 0.875 | 0.86 | 0.872 | 0.883 | 0.882 | 0.872 | 0.881 | 0.876 | 0.93 | 0.979
compound 2 concentration 20 µM | 0.898 | 0.898 | 0.901 | 0.911 | 0.908 | 0.899 | 0.907 | 0.908 | 0.956 | 0.986

CC1(C)OCCn2c1nc1c(N3CCOCC3)nc(-c3cnc(N)nc3)nc12 [GDC0084] + O=C(NOC[C@H](O)CO)c1ccc(F)c(F)c1Nc1ccc(I)cc1F [PD0325901]
growth inhibition
Details | compound 1 concentration 0.009766 µM | compound 1 concentration 0.01953 µM | compound 1 concentration 0.03906 µM | compound 1 concentration 0.07812 µM | compound 1 concentration 0.15625 µM | compound 1 concentration 0.3125 µM | compound 1 concentration 0.625 µM | compound 1 concentration 1.25 µM | compound 1 concentration 5 µM | compound 1 concentration 20 µM
compound 2 concentration 0.03906 µM | -0.12 | -0.197 | 0.0384 | 0.0281 | 0.284 | 0.461 | 0.656 | 0.736 | 0.874 | 0.903
compound 2 concentration 0.07812 µM | -0.0889 | -0.0669 | -0.00719 | 0.153 | 0.248 | 0.404 | 0.631 | 0.729 | 0.855 | 0.919
compound 2 concentration 0.15625 µM | -0.145 | -0.107 | -0.0597 | 0.0866 | 0.181 | 0.411 | 0.625 | 0.714 | 0.835 | 0.915
compound 2 concentration 0.3125 µM | -0.136 | 0.0502 | -0.0893 | 0.0398 | 0.184 | 0.318 | 0.582 | 0.644 | 0.788 | 0.89
compound 2 concentration 0.625 µM | -0.166 | -0.0808 | -0.0757 | 0.0763 | 0.176 | 0.471 | 0.532 | 0.677 | 0.822 | 0.896
compound 2 concentration 1.25 µM | -0.0698 | -0.0338 | -0.0377 | 0.08 | 0.227 | 0.394 | 0.576 | 0.727 | 0.866 | 0.908
compound 2 concentration 5 µM | 0.307 | 0.337 | 0.354 | 0.431 | 0.481 | 0.564 | 0.688 | 0.774 | 0.907 | 0.95
compound 2 concentration 20 µM | 0.486 | 0.554 | 0.507 | 0.615 | 0.653 | 0.772 | 0.853 | 0.913 | 0.975 | 0.985
